In US20240343727A1, “PYRIDAZINONE OR PYRIDINONE COMPOUNDS, PREPARATION METHODS AND USES THEREOF” (InventisBio Co., Ltd., priority 2021, published 2024):

Target: T1, PARP7 (Homo sapiens, UniProt Q7Z3E1)
T1 sequence (Q7Z3E1 1-657): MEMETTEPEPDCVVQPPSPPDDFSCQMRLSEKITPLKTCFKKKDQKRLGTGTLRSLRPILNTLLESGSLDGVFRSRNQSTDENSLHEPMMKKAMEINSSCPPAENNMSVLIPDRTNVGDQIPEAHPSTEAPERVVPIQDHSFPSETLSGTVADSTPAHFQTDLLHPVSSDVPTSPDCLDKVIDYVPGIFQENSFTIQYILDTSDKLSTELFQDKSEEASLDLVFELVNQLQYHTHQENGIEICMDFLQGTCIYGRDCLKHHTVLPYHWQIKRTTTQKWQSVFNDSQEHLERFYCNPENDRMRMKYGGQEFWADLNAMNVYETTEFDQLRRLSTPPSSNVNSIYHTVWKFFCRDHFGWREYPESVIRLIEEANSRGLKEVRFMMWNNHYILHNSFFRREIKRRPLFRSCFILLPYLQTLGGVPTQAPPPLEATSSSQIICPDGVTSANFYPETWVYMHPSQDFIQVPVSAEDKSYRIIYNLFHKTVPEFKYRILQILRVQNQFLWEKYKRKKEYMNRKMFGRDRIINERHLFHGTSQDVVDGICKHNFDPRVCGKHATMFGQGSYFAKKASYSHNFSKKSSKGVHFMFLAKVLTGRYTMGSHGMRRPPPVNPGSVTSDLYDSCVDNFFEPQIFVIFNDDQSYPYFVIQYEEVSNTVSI
Experiment: PARP7 TR-FRET assay (binding, displacement of biotinylated Probe A)
Conditions: 6 nM PARP7, 2 nM Probe A, 25° C., 30 min
Method: Biological Assay Example A: PARP7 TR-FRET Assay
A time-resolved fluorescence energy transfer (TR-FRET) assay was used to test binding activity of compounds to PARP7. Two microliter test compound was added in 384-well plate. Reactions were performed in a 6 uL volume by adding 4 uL mixture of PARP7 and Probe A (a biotinylated probe binding to the PARP7: N-(6-(2-(4-((2-(6-oxo-5-(trifluoromethyl)-1,6-dihydropyridazin-4-yl) isoindolin-5-yl) oxy) piperidin-1-yl) acetamido) hexyl)-5-((3aS,4S,6aR)-2-oxohexahydro-1H-thieno [3,4-d]imidazol-4-yl) pentanamide, made as reported in WO2019212937A1) in assay buffer (20 mM HEPES pH 8.0, 100 mM NaCl, 0.1% BSA, 2 mM DTT and 0.002% Tween20). The final concentration of PARP7 and Probe A were 6 nM and 2 nM, incubating with test compounds at 25° C. for 30 min. Four microliter ULight-anti 6xHis and LANCE Eu-W1024 labeled streptavidin (PerkinElmer) were added with the final concentration of ULight-anti 6xHis and LANCE Eu-W1024 at 4 nM and 0.25 nM. The reaction mixture was incubated at 25° C. for 30 min. The plate was read on a Tecan Spark plate reader (excitation wavelength at 320 nm, emission wavelength at 615 nm and 665 nm with a 90 us delay. The ratio of the 665/615 nm emission was calculated for each well to the amount of complex of PARP7 and Probe A in each well was calculated. The 0.25% DMSO vehicle was used as control and no PARP7 well was as blank well. Inhibition rate is calculated with the formula of % inhibition=100-100*(TRFcmpd-TRFblank)/(TRFcontrol−TRFblank). Inhibition IC50 is calculated with the equation of Y=Bottom+ (Top-Bottom)/(1+10^((LogIC50−X) *Hill Slope))

| IC50 | Compound |
| --- | --- |
| < 100 nM | O=C(COC1CCOc2c1n[nH]c(=O)c2C(F)(F)F)N1CCN(c2ncc(C(F)(F)F)cn2)CC1 (single isomer, unassigned) [Compound 10] |
| > 1000 nM | O=C(COC1CCOc2c1n[nH]c(=O)c2C(F)(F)F)N1CCN(c2ncc(C(F)(F)F)cn2)CC1 (single isomer, unassigned) [Compound 11] |
| < 100 nM | Cc1ccc(Oc2n[nH]c(=O)c(C(F)(F)F)c2C)cc1C(=O)N1CCN(c2ncc(C(F)(F)F)cn2)CC1 [Compound 65] |
| < 100 nM | C[C@@H]1CN(C(=O)CC2CN(c3cc(C(F)(F)F)c(=O)[nH]n3)c3cc(Cl)ccc3O2)CCN1c1ncc(C#N)cn1 (single isomer, unassigned) [Compound 329] |
| < 100 nM | CC1CN(c2c(Oc3cccc(C(=O)N4CCN(c5ncc(C(F)(F)F)cn5)CC4)c3)n[nH]c(=O)c2C(F)(F)F)C1 [Compound 181] |
| 100 to 1000 nM | N#Cc1cnc(N2CCN(C(=O)CC3CN(c4cc(C(F)(F)F)c(=O)[nH]n4)c4cc(Cl)ccc4O3)CC2)nc1 (single isomer, unassigned) [Compound 294] |
| > 1000 nM | O=C(CC1CN(c2cc(C(F)(F)F)c(=O)[nH]n2)c2ccccc2O1)N1CCn2c(nnc2C(F)(F)F)C1 (single isomer, unassigned) [Compound 289] |
| < 100 nM | C[C@H]1CN(c2n[nH]c(=O)c3c(F)cccc23)C[C@@H](CC(=O)N2CCN(c3ncc(C(F)(F)F)cn3)CC2)O1 (stereo in doubt) [Compound 95] |
| 100 to 1000 nM | C#Cc1cc(N2CCOC(CC(=O)N3CCN(c4ncc(C(F)(F)F)cn4)CC3)C2)n[nH]c1=O (single isomer, unassigned) [Compound 44] |
| < 100 nM | O=C(c1cncc(Oc2n[nH]c(=O)c(C(F)(F)F)c2N2CC3(C2)CC(F)(F)C3)c1)N1CCN(c2ncc(C3CC3)cn2)CC1 [Compound 313] |
| < 100 nM | O=C(CC1CN(c2cc(C(F)(F)F)c(=O)[nH]n2)c2cc(C3CC3)ccc2O1)N1CCN(c2ncc(C(F)(F)F)cn2)CC1 (single isomer, unassigned) [Compound 135] |
| < 100 nM | N#Cc1ccc2c(c1)N(c1cc(C(F)(F)F)c(=O)[nH]n1)CC(CC(=O)N1CCN(c3ncc(C(F)F)cn3)CC1)O2 (single isomer, unassigned) [Compound 219] |
| < 100 nM | COC1CN(c2c(Oc3cccc(C(=O)N4CCN(c5ncc(C(F)(F)F)cn5)CC4)c3)n[nH]c(=O)c2C(F)(F)F)C1 [Compound 166] |
| < 100 nM | O=C(CC1CN(c2cc(C(F)(F)F)c(=O)[nH]n2)c2ccccc2O1)N1CCN(c2ncc(Cl)cn2)CC1 (single isomer, unassigned) [Compound 296] |
| < 100 nM | N#Cc1ccc(N2CCN(C(=O)[C@@H]3COCCN3c3cc(C(F)(F)F)c(=O)[nH]n3)CC2)nc1 [Compound 37] |
| > 1000 nM | N#CC1(c2ccnc(N3CCN(C(=O)CC4CN(c5cc(C(F)(F)F)c(=O)[nH]n5)c5cc(Cl)ccc5O4)CC3)n2)CC1 (single isomer, unassigned) [Compound 345] |
| < 100 nM | N#Cc1ccc(N2CCN(C(=O)CC3CN(c4cc(C(F)(F)F)c(=O)[nH]n4)c4cc(Cl)ccc4O3)CC2)nc1 (single isomer, unassigned) [Compound 224] |
| > 1000 nM | O=C(CC1CN(c2cc(C(F)(F)F)c(=O)[nH]n2)c2cc(F)ccc2O1)N1CCN(c2ccc(C3CC3)cn2)CC1 (single isomer, unassigned) [Compound 301] |
| < 100 nM | CN(C)CCNc1c(Oc2cccc(C(=O)N3CCN(c4ncc(C(F)(F)F)cn4)CC3)c2)n[nH]c(=O)c1C(F)(F)F [Compound 172] |
| < 100 nM | CCOC1CN(c2c(Oc3ccnc(C(=O)N4CCN(c5ncc(C(F)(F)F)cn5)CC4)c3)n[nH]c(=O)c2C(F)(F)F)C1 [Compound 320] |
| 100 to 1000 nM | C[C@@H]1CN(c2cc(C(F)(F)F)c(=O)[nH]n2)C[C@H](CC(=O)N2CCN(c3ncc(C(F)(F)F)cn3)CC2)O1 (stereo in doubt) [Compound 110] |
| < 100 nM | O=C(c1cccc(Oc2n[nH]c(=O)c(C(F)(F)F)c2N2CC(C3CC3)C2)c1)N1CCN(c2ncc(C(F)(F)F)cn2)CC1 [Compound 180] |

| IC50 | Compound |
| --- | --- |
| > 1000 nM | CNc1c(Oc2cccc(C(=O)N3CCN(c4ncc(C(F)(F)F)cn4)CC3)c2)n[nH]c(=O)c1C(C)=O [Compound 74] |
| 100 to 1000 nM | C[C@@H]1CN(C(=O)CC2CN(c3cc(C(F)(F)F)c(=O)[nH]n3)c3cc(Cl)ccc3O2)CCN1c1ncc(C#N)cn1 (single isomer, unassigned) [Compound 330] |
| < 100 nM | O=C(OC[C@@H]1CCCN1c1cc(C(F)(F)F)c(=O)[nH]n1)N1CCN(c2ncc(C(F)(F)F)cn2)CC1 [Compound 87] |
| 100 to 1000 nM | COCC(=O)Nc1ccc2c(c1)N(c1cc(C(F)(F)F)c(=O)[nH]n1)CC(CC(=O)N1CCN(c3ncc(C(F)(F)F)cn3)CC1)O2 (single isomer, unassigned) [Compound 284] |
| < 100 nM | C[C@H]1CN(c2cc(C(F)(F)F)c(=O)[nH]n2)C[C@@H](CC(=O)N2CCN(c3ncc(C(F)(F)F)cn3)CC2)O1 (stereo in doubt) [Compound 79] |
| < 100 nM | C#Cc1cnc(N2CCN(C(=O)c3cncc(Oc4n[nH]c(=O)c(C(F)(F)F)c4N4CC5(C4)CC(F)(F)C5)c3)CC2)nc1 [Compound 299] |
| < 100 nM | O=C(CC1CN(c2cc(C(F)(F)F)c(=O)[nH]n2)c2ccccc2O1)N1CCN(c2ccc(Cl)cn2)CC1 (single isomer, unassigned) [Compound 261] |
| > 1000 nM | O=C(CC1CN(c2n[nH]c(=O)c3cccnc23)CCO1)N1CCN(c2ncc(C(F)(F)F)cn2)CC1 (single isomer, unassigned) [Compound 124] |
| < 100 nM | O=C(c1cc(Oc2n[nH]c(=O)c(C(F)(F)F)c2N2CC3(C2)CC(F)(F)C3)ccn1)N1CCN(c2ccc(C(F)(F)F)cn2)CC1 [Compound 148] |
| < 100 nM | O=C(c1cccc(Oc2n[nH]c(=O)c(C(F)(F)F)c2N2CC3(C2)CC(F)(F)C3)c1)N1CCN(c2ncc(C(F)(F)F)cn2)CC1 [Compound 175] |
| < 100 nM | O=C(CC1CN(c2cc(C(F)(F)F)c(=O)[nH]n2)c2cc(F)ccc2O1)N1CCN(c2ncc(C(F)(F)F)cn2)CC1 (single isomer, unassigned) [Compound 130] |
| < 100 nM | COCCNc1c(Oc2cccc(C(=O)N3CCN(c4ncc(C(F)(F)F)cn4)CC3)c2)n[nH]c(=O)c1C(F)(F)F [Compound 169] |
| > 1000 nM | O=C(CC1CN(c2n[nH]c(=O)c3ncccc23)CCO1)N1CCN(c2ncc(C(F)(F)F)cn2)CC1 (single isomer, unassigned) [Compound 126] |
| 100 to 1000 nM | CCOC1CN(c2c(Oc3cncc(C(=O)N4CCN(c5ncc(C(F)(F)F)cn5)CC4)c3)n[nH]c(=O)c2C(F)(F)F)C1 [Compound 322] |
| > 1000 nM | O=C(COC1CCOc2c1n[nH]c(=O)c2Br)N1CCN(c2ncc(C(F)(F)F)cn2)CC1 (single isomer, unassigned) [Compound 9] |
| < 100 nM | O=C(c1cccc(Oc2n[nH]c(=O)c(C(F)(F)F)c2N2CC3(CCCO3)C2)c1)N1CCN(c2ncc(C(F)(F)F)cn2)CC1 [Compound 162] |
| < 100 nM | O=C(CC1CN(c2cc(C(F)(F)F)c(=O)[nH]n2)CCC1(F)F)N1CCN(c2ncc(C(F)(F)F)cn2)CC1 (single isomer, unassigned) [Compound 108] |
| < 100 nM | O=C(c1cncc(Oc2n[nH]c(=O)c(C(F)(F)F)c2N2CC3(CCCO3)C2)c1)N1CCN(c2ncc(Cl)cn2)CC1 [Compound 234] |
| > 1000 nM | Cc1c(C(F)(F)F)c(Oc2cccc(C(=O)N3CCN(c4ncc(C(F)(F)F)cn4)CC3)c2)n[nH]c1=O [Compound 17] |
| > 1000 nM | O=C(C[C@@H]1CCCN1c1n[nH]c(=O)c2ccccc12)N1CCN(c2ncc(C(F)(F)F)cn2)CC1 [Compound 47] |
| < 100 nM | O=C(c1cc(Oc2n[nH]c(=O)c(C(F)(F)F)c2N2CC3(C2)CC(F)(F)C3)ccn1)N1CCN(c2ncc(C(F)(F)F)cn2)CC1 [Compound 304] |
